Source: patent publication US20220024963A1, “SALT OF TRIPHOSPHATE PHOSPHORAMIDATES OF NUCLEOTIDES AS ANTICANCER COMPOUNDS” (priority 2019, published 2022)
Counter-ions that a name gives are not always drawn. Like-named read-outs stand apart in the source and are kept apart here.

What was measured:
[1] = tested on: CCRF-CEM and OCI-AML3 cells; assay type: cell-based; details: both cell lines
Procedure: (§1) For all experiments, cells were plated on a 96 well plate, at a density of 10,000 cells/well in 50 μL media. Dilutions from stock concentration to working solutions were prepared in media; at twice the required concentration and 50 μL was added per well (this achieving the final concentrations described in results below). Control untreated received 50 μL of plain media. After 66 h 10 μL of resazurin was added per well (dilution 1:10). Cells were then incubated with for up to 6 h. After 72 h treatment, cytotoxicity assay (AlamarBlue™−resazurin dye) was performed to determine cell survival. Plates were scanned with a BioHit800 plate reader and data were analysed with Excel and GraphPad Prism.
(§2) Clofarabine, A, 5a, 5b, 5c, 5d, 5e and 5f were tested against CCRF-CEM and OCI-AML3 cells. Data is represented as the percentage ofcell survival for each ofthe different concentrations to which cells were exposed, rather than calculating a formal IC50 from only two or three datapoints.

OCI-AML3 (AML) = experiment: cells; assay type: cell-based; details: for Survival @ 50 nM: OCI-AML3, 50 nM; for Survival @ 50 nM / Survival @ 125 nM: percentage of cell survival, 72 h; for Survival @ 125 nM: OCI-AML3, 125 nM; for IC50: OCI-AML3, 72 h treatment, AlamarBlue
Excerpt: (§3) The efficacy (evaluated by IC50) of clofarabine and 3 different compounds representing different class of clofarabine ProTides (monophosphate, diphosphate and triphosphate molecules) was compared.
(§4) The tested cancer cell lines were acute lymphoblastic leukaemia (ALL), acute myeloid leukaemia (AML) and lymphoma: CCRF-CEM (ALL), HL60 (AML), KG1 (AML), OCI-AML3 (AML) and RL (lymphoma), grown in suspension, in RPMI-1640 media, supplemented with 10% FBS serum and 1% pen strep, except for KG1 cell line for which FBS was 20%.
as §1
(§5) A low IC50 indicates greater potency under these laboratory conditions.
as §2

CCRF-CEM (ALL) = experiment: cells; assay type: cell-based; details: for Survival @ 25 nM / Survival @ 50 nM / Survival @ 125 nM: percentage of cell survival, 72 h; for IC50: 72 h treatment, AlamarBlue
Excerpt: as §3, §4, §1, §5, §2

CCRF-CEM = experiment: In vitro viability assay, CellTiterGlo, 72 h (Example A); assay type: cell-based; details: for EC50: read-out: Ab EC50
Procedure: (§6) A compound of the invention was assayed for cytotoxic activity in an array of different solid tumours and haematological malignancies using the following assay.
(§7) In vitro viability assay was performed to assess the effects of compounds on cell viability in selected cell lines over 72 h using the CellTiterGlo (CTG, Promega-G7573) assay. The tests were performed in duplicates with treatment of compounds at 9 points, 3.16 folds titration in 96 well plates over ˜72 h. The compound starting concentrations were 198 μM. Cell viability assay using CellTiterGlo in 96-well plate were performed. Compound treatment 72 h, standard growth conditions, duplicates. Compounds were dissolved to 40 mM with thawed […]. Compounds were serially diluted at 3.16 fold in thawed DMSO and warmed to 37° C. before being dissolved in media (2 μL+200 μL). After compounds were dissolved in media, media containing compounds were warmed to 37° C. in incubator and then compounds in media were added to cell plates (50 μL+50 μL) in duplicates. The compounds' final concentrations were from 198 μM to 19.8 nM. All compound solubilities were checked and recorded again, then the plates were transferred to CO2 tissue culture incubator immediately and incubated for 3 days. DMSO final concentration is 0.5%.

KG-1 = experiment: as above; assay type: cell-based; details: KG-1, CellTiterGlo; for EC50: read-out: Ab EC50
Procedure: as §6, §7

HT29 = experiment: as above; assay type: cell-based
Procedure: as §6, §7

HL-60 = experiment: as above; assay type: cell-based; details: HL-60, CellTiterGlo; for EC50: read-out: Ab EC50
Procedure: as §6, §7

K562 = experiment: as above; assay type: cell-based; details: for EC50: read-out: Ab EC50
Procedure: as §6, §7

HepG2 = experiment: as above; assay type: cell-based; details: for EC50: read-out: Ab EC50
Procedure: as §6, §7

MOLT-4 = experiment: as above; assay type: cell-based; details: MOLT-4, CellTiterGlo; for EC50: read-out: Ab EC50
Procedure: as §6, §7

RL = experiment: as above; assay type: cell-based; details: for EC50: read-out: Ab EC50
Procedure: as §6, §7

MCF-7 = experiment: as above; assay type: cell-based
Procedure: as §6, §7

RL (lymphoma) = experiment: Cytotoxicity assay (AlamarBlue - resazurin dye), 72 h (Example B); assay type: cell-based; details: 72 h treatment
Excerpt: as §3, §4, §1, §5

HL60 (AML) = experiment: as above; assay type: cell-based
Excerpt: as §3, §4, §1, §5

KG1 (AML) = experiment: as above; assay type: cell-based; details: KG1, 72 h treatment
Excerpt: as §3, §4, §1, §5

RPMI-8226 = experiment: In vitro viability assay, CellTiterGlo, 72 h (Example A); assay type: cell-based, Human; details: RPMI-8226, CellTiterGlo; for EC50: read-out: Ab EC50
Procedure: as §6, §7

[2] = Homo sapiens, HT-29, read-out: Ab EC50
[3] = Homo sapiens, HL-60, HL60, 72 h treatment

Row | Compound | efficacy compared to A and clofarabine [1] | Survival @ 50 nM (OCI-AML3 (AML)) | Survival @ 125 nM (OCI-AML3 (AML)) | Survival @ 25 nM (CCRF-CEM (ALL)) | Survival @ 50 nM (CCRF-CEM (ALL)) | Survival @ 125 nM (CCRF-CEM (ALL)) | Top Inhibit (CCRF-CEM) | Top Inhibit (KG-1) | Top Inhibit (HT29) | Top Inhibit (HL-60) | Top Inhibit (K562) | Top Inhibit (HepG2) | Top Inhibit (MOLT-4) | Top Inhibit (RL) | IC50 (RL (lymphoma)) | IC50 (HL60 (AML); [3]) | IC50 (KG1 (AML)) | Top Inhibit (RPMI-8226) | IC50 (OCI-AML3 (AML); Homo sapiens, OCI-AML-3) | IC50 (CCRF-CEM (ALL); Homo sapiens) | further results
1 | C[C@H](NP(=O)(Oc1cccc2ccccc12)OP(=O)(O)OP(=O)(O)OC[C@H]1O[C@@H](n2cnc3c(N)nc(Cl)nc32)[C@@H](F)[C@@H]1O)C(=O)OCc1ccccc1 (stereo partly drawn) [Compound 5b, (2S)-Benzyl 2-(((((((((2R,3R,4S,5R)-5-(6-amino-2-chloro-9H-purin-9-yl)-4-fluoro-3-hydroxytetrahydrofuran-2-yl)methoxy)(hydroxy)phosphoryl)oxy)(hydroxy)phosphoryl)oxy)(naphthalen-1-yloxy)phosphoryl)amino)propanoate di-triethylammonium salt] | superior efficacy | 64% | 24% | 36% | 18% | 13% |  |  |  |  |  |  |  |  |  |  |  |  |  |  | 
2 | (2S)-Methyl 2-(((((((((2R,3R,4S,5R)-5-(6-amino-2-chloro-9H-purin-9-yl)-4-fluoro-3-hydroxytetrahydrofuran-2-yl)methoxy)(hydroxy)phosphoryl)oxy)(hydroxy)phosphoryl)oxy)(phenoxy)phosphoryl)amino)-4-(methylthio)butanoate di-triethylammonium salt [Compound 5d] | superior efficacy | 61% | 29% | 92% | 16% | 14% |  |  |  |  |  |  |  |  |  |  |  |  |  |  | 
3 | C[C@H](NP(=O)(Oc1ccccc1)OP(=O)(O)OP(=O)(O)OC[C@H]1O[C@@H](n2cnc3c(N)nc(Cl)nc32)C(F)[C@H]1O)C(=O)OCc1ccccc1 (stereo partly drawn) [Compound 5a, (2S)-Benzyl 2-(((((((((2R,3R,4S,5R)-5-(6-amino-2-chloro-9H-purin-9-yl)-4-fluoro-3-hydroxytetrahydrofuran-2-yl)methoxy)(hydroxy)phosphoryl)oxy) (hydroxy)phosphoryl)oxy)(phenoxy)phosphoryl)amino)propanoate, di-triethylammonium salt] |  | 86% | 51% | 81% | 100% | 13% | 99% | 92% | 64% | 97% | 33% | 51% | 86% | 57% | 117 nM | 56.2 nM | 349 nM | 94% | 114 nM | 79 nM | EC50 (CCRF-CEM; Homo sapiens): < 20 nM; EC50 (KG-1; Homo sapiens): 310 nM; EC50 (HT29; [2]): 500 nM; EC50 (HL-60; Homo sapiens): 330 nM; EC50 (K562; Homo sapiens): > 198000 nM; EC50 (HepG2; Homo sapiens): 620 nM; EC50 (MOLT-4; Homo sapiens): 40 nM; EC50 (RL; Homo sapiens): 44600 nM; EC50 (MCF-7; Homo sapiens, MCF7, MCF-7, CellTiterGlo, read-out: Ab EC50): > 198000 nM; Top Inhibit (MCF-7; MCF-7, CellTiterGlo): 40%; EC50 (RPMI-8226; Homo sapiens): 20200 nM
4 | (2S)-Neopentyl 2-(((((((((2R,3R,4S,5R)-5-(6-amino-2-chloro-9H-purin-9-yl)-4-fluoro-3-hydroxytetrahydrofuran-2-yl)methoxy)(hydroxy)phosphoryl)oxy)(hydroxy)phosphoryl)oxy)(phenoxy)phosphoryl)amino)-3-phenylpropanoate di-triethylammonium salt [Compound 5f] | superior efficacy | 57% | 32% | 85% | 16% | 14% |  |  |  |  |  |  |  |  |  |  |  |  |  |  | 
5 | (2S)-Isopropyl 2-(((((((((2R,3R,4S,5R)-5-(6-amino-2-chloro-9H-purin-9-yl)-4-fluoro-3-hydroxytetrahydrofuran-2-yl)methoxy)(hydroxy)phosphoryl)oxy)(hydroxy) phosphoryl)oxy)(phenoxy)phosphoryl)amino)propanoate di-triethylammonium salt [Compound 5c] |  | 99% | 61% | 93% | 94% | 14% |  |  |  |  |  |  |  |  |  |  |  |  |  |  | 
6 | C[C@H](NP(=O)(OC[C@H]1O[C@@H](n2cnc3c(N)nc(Cl)nc32)C(F)[C@H]1O)Oc1ccccc1)C(=O)OCc1ccccc1 (some centres unmarked) [A] |  | 99% | 96% | 96% | 100% | 100% | 99% | 93% | 86% | 95% | 85% | 99% | 100% | 90% | 399 nM | 91 nM | 1760 nM | 83% | 253 nM | 275 nM | EC50 (CCRF-CEM; Homo sapiens): 80 nM; EC50 (KG-1; Homo sapiens): 440 nM; EC50 (HT29; [2]): 1730 nM; EC50 (HL-60; Homo sapiens): 220 nM; EC50 (K562; Homo sapiens): 27300 nM; EC50 (HepG2; Homo sapiens): 7630 nM; EC50 (MOLT-4; Homo sapiens): 250 nM; EC50 (RL; Homo sapiens): 4260 nM; EC50 (RPMI-8226; Homo sapiens): 9200 nM
7 | C[C@H](NP(=O)(Oc1ccccc1)OP(=O)(O)OC[C@H]1O[C@@H](n2cnc3c(N)nc(Cl)nc32)C(F)[C@H]1O)C(=O)OCc1ccccc1 (some centres unmarked) [B] |  |  |  |  |  |  |  |  |  |  |  |  |  |  | 153 nM | 71.9 nM | 267 nM |  | 121 nM | 82.5 nM | 
8 | Clofarabine |  | 47% | 19% | 36% | 17% | 13% | 99% | 93% | 68% | 97% | 32% | 57% | 94% | 61% | 114 nM |  | 244 nM | 80% |  |  | EC50 (CCRF-CEM): < 20 nM; EC50 (KG-1): 70 nM; EC50 (HT29; read-out: Ab EC50): 260 nM; EC50 (HL-60): 40 nM; EC50 (K562): > 198000 nM; EC50 (HepG2): 1090 nM; EC50 (MOLT-4): < 20 nM; EC50 (RL): 310 nM; IC50 (HL60 (AML); HL60, 72 h treatment): 41.5 nM; EC50 (RPMI-8226): 27600 nM; IC50 (OCI-AML3 (AML)): 74 nM; IC50 (CCRF-CEM (ALL)): 40.5 nM
9 | (2S)-Cyclohexyl 2-(((((((((2R,3R,4S,5R)-5-(6-amino-2-chloro-9H-purin-9-yl)-4-fluoro-3-hydroxytetrahydrofuran-2-yl)methoxy)(hydroxy)phosphoryl)oxy)(hydroxy)phosphoryl)oxy)(phenoxy)phosphoryl)amino)-3-methylbutanoate di-triethylammonium salt [Compound 5e] |  | 100% | 95% | 99% | 75% | 90% |  |  |  |  |  |  |  |  |  |  |  |  |  |  | 
